# Test results reported in US20100273848A1, “IMINOPYRROLIDONE THIOL AMINO ACID CONJUGATES, PHARMACEUTICAL COMPOSITIONS AND METHODS FOR THE TREATMENT OF CANCER” (THE ARIZONA BD OR REG ON BEHALF OF THE UNIV OF AZ, priority 2007, published 2010).
# Where two headings read alike, the source gives them in different places.
# What was measured:
# Raji lymphoma cells = assay: Cytotoxicity study, MTT assay, Raji cells; assay type: cell-based, human; details: 96 hours, read-out: IC50 at 72* or 96 hours
# Protocol: (§1) Example 1 illustrates a method of determining the antineoplastic activity of iminopyrrolidone thiol amino acid conjugates in vitro. Ninety-six (96) well plates (BD Biosciences, San Jose, Calif.) were seeded with approximately 5000 cells in 160 μl of growth medium per well in the last eleven columns of each plate. The first column of each plate was filled with 160 μl of growth medium containing no cells to be used as a blank. Following a 24-hour incubation period, the cells in the last ten columns were drugged (leaving row one as a blank and row two as a control with uninhibited cell growth) with 40 μl of either simexonyl homocysteine or imexon in growth medium. The quantity of drug added to the wells of each respective column was constant, but varied from column to column such that the resulting concentration in the total volume of each individual well ranged from 1 μM to 1000 μM. […]
# [1] = tested on: MiaPaCa human pancreatic cancer cells; assay: Cytotoxicity study, SRB assay, MiaPaCa cells; assay type: cell-based; details: 96 hours, read-out: IC50 at 72* or 96 hours
# Protocol: as §1
# DB lymphoma cells [2] = assay: Cytotoxicity study, MTT assay, DB cells; assay type: cell-based, human; details: 96 hours, read-out: IC50 at 72* or 96 hours
# Protocol: as §1
# [3] = tested on: PC-3 human prostate cancer cells; assay: Cytotoxicity study, SRB assay, PC-3 cells; assay type: cell-based; details: PC-3 - Prostate, 72 hours (*), read-out: IC50 at 72* or 96 hours
# Protocol: as §1
# DB lymphoma cells [4] = details: 45, 90 or 180 μM, 48 hours after drug exposure, FIG. 6
# Protocol: DB and Raji lymphoma cells were kindly provided by Dr. Alan List (University of Arizona, Tucson, Ariz.). All cell lines were cultured in RPMI 1640 media (Mediatech, Herndon, Va.) enhanced with 5% (v/v) (10% for DB and Raji cells) heat-inactivated bovine calf serum (Hyclone Laboratories, Logan, Utah), 2 mM L-glutamine, 100 U/ml penicillin, and 100 μg/ml streptomycin (each from Invitrogen, Carlsbad, Calif.) in a humidified incubator containing 5% CO2 at 37° C.
# DB lymphoma cells were cultured in ninety-six (96) well plates (BD Biosciences) under conditions as described hereinbefore. […] Forty eight hours after drug exposure, the percentage of necrotic, viable, proapoptotic, and apoptotic cells in each respective well was measured using an annexin V—FITC (fluorescein isothiocyanate labeled annexin V) apoptosis detection kit (BioVision Labs) according to the manufacturer's instructions in conjunction with a Bectin Dickenson FACScan (San Jose, Calif.) fluorescence activated cell sorter using CellQuest Pro software (BD Biosciences). […]
# A threshold intensity for the fluorescence signal permits one to distinguish between proapoptotic and apoptotic cells in the flow cytometric analysis, but both are indicative of an induction of apoptosis by the drug.
# [5] = tested on: A375 human malignant melanoma cells; assay: Cytotoxicity study, SRB assay, A375 cells; assay type: cell-based; details: 96 hours, read-out: IC50 at 72* or 96 hours
# Protocol: as §1
# [6] = tested on: 8226/I10 human myeloma cells (chemotherapy resistant); assay: Cytotoxicity study, MTT assay, 8226/I10 cells; assay type: cell-based; details: 8226/I10 - Myeloma, 96 hours, read-out: IC50 at 72* or 96 hours
# Protocol: as §1
# [7] = tested on: 8226/s human myeloma cells (chemotherapy sensitive); assay: Cytotoxicity study, MTT assay, 8226/s cells; assay type: cell-based; details: 8226/s - Myeloma, 96 hours, read-out: IC50 at 72* or 96 hours
# Protocol: as §1
# [8] = tested on: DU-145 human prostate cancer cells; assay: Cytotoxicity study, SRB assay, DU-145 cells; assay type: cell-based; details: DU-145 - Prostate, 96 hours, read-out: IC50 at 72* or 96 hours
# Protocol: as §1
molecule,measurement,setting,value
"NC1=NC(=O)N2CC12 (racemic) [imexon, (5RS)-4-amino-1,3-diazabicyclo[3.1.0]hex-3-en-2-one, reference compound]",IC50,Raji lymphoma cells; Homo sapiens,50 µM
same,IC50,"[1]; Homo sapiens, MIA PaCa-2, MiaPaCa - Pancreas",190 µM
same,IC50,DB lymphoma cells [2]; Homo sapiens,54 µM
simexonyl homocysteine,IC50,[3],49 µM
same,induction of apoptosis (percentage of proapoptotic and apoptotic cells),DB lymphoma cells [4],induced apoptosis
same,IC50,[5],15.4 µM
same,IC50,Raji lymphoma cells,22 µM
same,IC50,[1]; MiaPaCa - Pancreas,46 µM
same,IC50,DB lymphoma cells [2],23 µM
same,IC50,[6],95 µM
same,IC50,[7],13.6 µM
same,IC50,[8],143 µM
